Measured values from patent EP4745139A1, “COMPOUND FOR TREATING AND PREVENTING RESPIRATORY SYNCYTIAL VIRUS INFECTION DISEASES” (CSPC Zhongqi Pharmaceutical Technology (Shijiazhuang) Co., …, priority 2023, dated 2025).

Columns and labels:
RSV strain A2 = test: Antiviral detection test against RSV strain A2 based on ELISA method (Hep-2 cells); assay type: cell-based, Respiratory Syncytial Virus; settings: RSV A2 virus strain, Hep-2 cells, ELISA OD450
Experimental: Test Example 1: Antiviral detection test of small molecules against RSV strain A2 based on ELISA method
• Source of cell line: Nanjing Kebai Biotechnology Co., Ltd. • Cell type: human laryngeal carcinoma epithelial cells Hep-2
• 96-well culture plate (Cat.No. 3610, Corning Costar); • Fetal bovine serum (Cat.No. 10099-141, GIBCO); • DMEM medium (Cat.No. 11995500BT, GIBCO); • Envision 2104 microplate reader.
• 1. Day 1: The Hep-2 cells were seeded into a 96-well plate at a density of 1×10^4 cells/well; • 2. Day 2: • A. Compound dilution: The compound in the first well was diluted to 9 µM, and 3-fold gradient dilution was performed, with a total of 10 gradients; • B. The Hep-2 cell plate prepared on Day 1 was taken out from the incubator, the supernatant was discarded, and 100 PFU/well/50 µL of the RSV A2 virus was added to each well. The plate was stood at 37°C in a 5% CO2 incubator for 2 hours, the supernatant was aspirated and discarded, and then 100 µL of the gradient-diluted compound or DMEM maintenance medium containing 2% FBS was added to each well; • 3. Day 5: • A. Add fixative: The gradient-diluted compound or medium was discarded from the wells, and 100 µL/well of fixative (4% paraformaldehyde) was added. The plate was stood at room temperature for 10 minutes, and then was washed once with 250 µL PBS; • B. 100 µL/well of a blocking solution was added, and the plate was incubated at 37°C in a 5% CO2 incubator for 30 minutes; • C. After incubation, the detection antibody (Anti RSV Fpro) was added at 0.3 µg/50 µL/well (6 µg/mL), and the plate was incubated at 37°C in a 5% CO2 incubator for 1 hour; • D. After incubation, the HRP secondary antibody was added (diluted 10,000-fold with 0.2% BSA), and the plate was incubated at 37°C in a 5% CO2 incubator for 1 hour; • E. After incubation, the wells were washed for 4 times with PBST, 250 µL/well, each washing was allowed to stand for 5 minutes, and the liquid in the wells was shaken off after completion of the washing; • F. 100 µL/well of a development solution was added, the plate was incubated at room temperature in the dark for 20 minutes, and 50 µL/well of a reaction termination solution was added. The plate was tapped gently to mix the solutions, and the absorbance at 450 nm was measured using the microplate reader. • 4. Data analysis • Inhibition rate of the compound against the virus = 100% - (SC - CC)/(VC - CC) × 100% • SC: OD450 value of the sample (cells + test compound + virus) • CC: OD450 value of the normal growing cell control (cells) • VC: OD450 value of the virus growth control (cells + virus)
The software Graphpad Prism 6 was used, and the calculation formula XY-analysis/Nonlinear regression (curve fit)/Dose response-Inhibition/log (inhibition) vs. response-Variable slope (four parameters) was adopted to fit the IC50 curve and calculate the IC50 value.

[1] = Pharmacokinetic experiment in mice after intragastric administration (plasma and lung tissue, LC/MS/MS); assay type: in vivo; settings: ICR, mouse, intragastric administration at 20 mg/kg
Experimental: The compounds of the present invention for intragastric administration were dissolved in a suitable solvent to form a clear solution or suspension.
Administration mode and dosage: The compounds of the present invention were administered intragastrically at 10 mg/kg or 20 mg/kg.
Number of animals: 3 ICR mice per group for intragastric administration.
Sample collection: For the intragastric administration group, 100 µL of blood was collected (using pre-heparinized 100 µL Capillary Blood Collection Tubes) from the orbital vein of mice at 0.25 h, 0.5 h, 1 h, 2 h, 4 h, and 6 h after administration and placed in heparin sodium anticoagulant tubes. Mice plasma samples were obtained by centrifugation at 3000 g for 10 minutes within 2 hours. For the intragastric administration group, clean blood was collected at 6-hour time point and then lung tissues were collected.
Sample treatment: Plasma and lung tissue homogenates were subjected to protein precipitation with methanol at a certain ratio, and the supernatant was taken and diluted with 50% methanol-water at a certain ratio for sample loading.
Sample detection: The drug concentration in plasma was detected by the LC/MS/MS method, and the drug-time curve was plotted. Pharmacokinetic parameters (such as T1/2(h)/AUC0-t) were calculated by non-compartmental model statistical moments to describe the pharmacokinetic behavior of the compounds in mice after administration.
Data processing: Pharmacokinetic parameters were calculated by WinNonlin.

RSV = test: In vivo pharmacodynamic assay: mouse RSV infection model, lung viral load by plaque assay; set-up: species or system BALB/c mice; settings: QD, lung tissue, Day 5
Experimental: The compound of the present invention was dissolved in a suitable solvent to form a clear solution or suspension for intragastric administration. • Animals: BALB/c mice, 6-weeks old, female. • Establishment of in vivo RSV infection model: Mice were inoculated intranasally with the virus on Day 0, with an inoculation dose of 3.5 × 10^6 p.f.u. per mouse. • Grouping of animals: Animals were divided into a vehicle control group and an administration group, with 5 animals in each group.
Administration mode and dosage: The compound of the present invention was administered intragastrically at 100 mg/kg or 50 mg/kg, or the vehicle used for the compound of the present invention was administered intragastrically. The administration volume was 10 mL/kg.
Experimental procedure: Mice were inoculated intranasally with the virus on Day 0 at an inoculation dose of 3.5 × 10^6 p.f.u. per mouse. Mice were continuously treated with the compound of the present invention from Day 0 to Day 4 for 5 days at a dose of 50 mg/kg, once daily, via intragastric administration, with an administration volume of 10 mL/kg; the first administration was conducted 1 hour before virus inoculation. Alternatively, mice were treated once with the compound of the present invention on Day 0 at a dose of 100 mg/kg, via intragastric administration, with an administration volume of 10 mL/kg; the first administration was conducted 1 hour before virus inoculation. On Day 5, mice were euthanized, and lung tissue samples were collected. Animals were observed daily from Day 0 to Day 5, and the body weight, health status, and survival status were recorded.
Sample processing: After lungs were collected, they were quickly frozen in the HBSS* solution at a 10-fold weight-to-volume ratio (w:v (g:mL) = 1:10), and stored in a -80°C refrigerator for plaque assay to detect viral load.
Sample detection: Viral load in lung tissues was detected by plaque assay. […]

[2] = biological target: human potassium ion channel (hERG) (Homo sapiens, UniProt Q12809)
Sequence of human potassium ion channel (hERG) (Q12809 whole entry): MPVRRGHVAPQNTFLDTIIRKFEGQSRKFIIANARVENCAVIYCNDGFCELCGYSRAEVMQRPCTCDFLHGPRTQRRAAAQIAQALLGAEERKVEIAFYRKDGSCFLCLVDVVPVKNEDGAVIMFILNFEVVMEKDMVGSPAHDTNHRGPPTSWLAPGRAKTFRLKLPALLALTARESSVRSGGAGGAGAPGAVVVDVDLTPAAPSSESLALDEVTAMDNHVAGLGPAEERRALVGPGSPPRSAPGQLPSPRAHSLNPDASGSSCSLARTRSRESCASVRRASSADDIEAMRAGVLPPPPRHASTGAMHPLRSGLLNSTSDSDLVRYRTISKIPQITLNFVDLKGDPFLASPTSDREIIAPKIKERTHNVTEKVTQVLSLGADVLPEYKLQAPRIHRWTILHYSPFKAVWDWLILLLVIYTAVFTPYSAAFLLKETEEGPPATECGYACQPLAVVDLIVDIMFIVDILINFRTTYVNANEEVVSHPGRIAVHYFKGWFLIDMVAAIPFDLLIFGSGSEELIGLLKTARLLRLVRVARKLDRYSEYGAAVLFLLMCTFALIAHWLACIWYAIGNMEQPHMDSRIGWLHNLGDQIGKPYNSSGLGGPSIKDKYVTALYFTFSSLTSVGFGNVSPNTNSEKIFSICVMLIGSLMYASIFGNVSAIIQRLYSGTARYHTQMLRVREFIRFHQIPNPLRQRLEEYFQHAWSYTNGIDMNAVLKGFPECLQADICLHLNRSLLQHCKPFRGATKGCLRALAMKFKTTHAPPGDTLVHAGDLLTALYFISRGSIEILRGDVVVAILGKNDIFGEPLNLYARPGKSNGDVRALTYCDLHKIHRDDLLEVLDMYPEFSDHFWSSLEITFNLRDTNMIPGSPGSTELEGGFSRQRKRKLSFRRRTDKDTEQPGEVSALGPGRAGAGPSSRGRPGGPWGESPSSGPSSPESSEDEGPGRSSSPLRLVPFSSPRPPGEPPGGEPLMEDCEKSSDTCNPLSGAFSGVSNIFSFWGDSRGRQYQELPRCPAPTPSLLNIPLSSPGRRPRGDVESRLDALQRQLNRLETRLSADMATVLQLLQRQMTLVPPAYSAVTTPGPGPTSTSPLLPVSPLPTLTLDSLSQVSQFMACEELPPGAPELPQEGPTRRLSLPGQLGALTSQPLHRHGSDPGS
Experimental: Experimental equipment: Electrophysiological detection was performed using the fully automated patch clamp QPatch 48 X (Sophion) device.
Experimental procedure: The prepared cells were placed in the centrifuge chambers of the QPatch workbench, the cells were washed by the centrifugation/suspension method for multiple times to replace the cell culture medium with an extracellular solution. One MTP-96 plate was taken out and placed at the MTP source position. The QPlate chip was taken out and then the QPlate was placed at the QPlate source position. The robotic arm scanned the MTP-96 plate and the barcodes of the QPlate chip, and grabbed them to the measurement station. Intracellular and extracellular solutions were aspirated from the liquid pool and added to the intracellular solution pool and the cell and test substance pool of the QPlate chip, respectively. At the measurement station, all measurement sites on the QPlate underwent initial quality control. […] The current detected in each cell in the extracellular solution without the compound was used as its own control group, and the detection was independently repeated on two cells. […]
Data processing: The IC50 values were calculated using GraphPad Prism software.

| Compound | IC50 (RSV strain A2; human respiratory syncytial virus) [nM] | concentration at 6 h ([1]; lung, oral, read-out: Lung tissue drug concentration at 6 h) [ng/g] | half-life ([1]; plasma, po) [h] | log (RSV Viral Load) Mean (RSV; 50 mpk, 5 days administration, value is the lower limit of detection for viral load) [°] | log (RSV Viral Load) Mean (RSV; 100 mpk, administration once) | IC50 (RSV strain A2) [nM] | IC50 of the Compound of the present invention /AK0529 IC50 [2] |
| --- | --- | --- | --- | --- | --- | --- | --- |
| Cc1ccc2nc(N3CCS(=O)(=NC4CC4)c4ccccc4C3)nc(N3CC[C@H](N)C3)c2c1 (stereo partly shown) [Example 4-11] | < 10 | 22700 | 6.91 | 2.30 | 2.48 |  |  |
| Cc1ccc2nc(N3CCS(=O)(=NCC4CCO4)c4ccccc4C3)nc(N3CC[C@H](N)C3)c2c1 (stereo partly shown) [Example 4-61] |  |  |  |  |  | < 10 | > 1 |
